The target in test [1] is T1, Human recombinant LSD1 protein (Homo sapiens, UniProt O60341).
T1 construct: amino acids 158-end with N-terminal GST tag; purchased BPS Bioscience Inc 50100
As to the kind of experiment: LSD1 in vitro biochemical assay (Amplex Red, di-methylated H3-K4 peptide). From the text:
The inhibitory activity of a compound of interest against LSD1 can be tested using the method described below: Human recombinant LSD1 protein from BPS Bioscience Inc (catalog reference number 50100: human recombinant LSD1, GenBank accession no. NM_015013, amino acids 158-end with N-terminal GST tag, MW: 103 kDa) was used. In order to monitor LSD1 enzymatic activity and/or its inhibition rate by a test compound, di-methylated H3-K4 peptide (Anaspec) was chosen as a substrate. The demethylase activity was estimated, under aerobic conditions, by measuring the release of H2O2 produced during the catalytic process, using the Amplex® Red hydrogen peroxide/peroxidase assay kit (Invitrogen).
Briefly, a fixed amount of LSD1 was incubated on ice for 15 minutes, in the absence and/or in the presence of at least eight 3-fold serial dilutions of the respective inhibitor (e.g., from 0 to 75 μM, depending on the inhibitor strength). Tranylcypromine (Biomol International) was used as a control for inhibition. Within the experiment, each concentration of inhibitor was tested in duplicate. After leaving the enzyme interacting with the inhibitor, KM of di-methylated H3-K4 peptide was added to each reaction and the experiment was left for 30 minutes at 37° C. in the dark. The enzymatic reactions were set up in a 50 mM sodium phosphate, pH 7.4 buffer. At the end of the incubation, Amplex® Red reagent and horseradish peroxidase (HPR) solution were added to the reaction according to the recommendations provided by the supplier (Invitrogen), and left to incubate for 5 extra minutes at room temperature in the dark. A 1 μM H2O2 solution was used as a control of the kit efficiency. The conversion of the Amplex® Red reagent to resorufin due to the presence of H2O2 in the assay, was monitored by fluorescence (excitation at 540 nm, emission at 590 nm) using a microplate reader (Infinite 200, Tecan). Arbitrary units were used to measure level of H2O2 produced in the absence and/or in the presence of inhibitor. The maximum demethylase activity of LSD1 was obtained in the absence of inhibitor and corrected for background fluorescence in the absence of LSD1. The IC50 value of each inhibitor was calculated with GraphPad Prism Software.

For test [2], the target named is T2, Human recombinant monoamine oxidase MAO-A (Homo sapiens, UniProt P21397).
T2 construct: purchased Sigma Aldrich
T2 sequence (P21397 1-527): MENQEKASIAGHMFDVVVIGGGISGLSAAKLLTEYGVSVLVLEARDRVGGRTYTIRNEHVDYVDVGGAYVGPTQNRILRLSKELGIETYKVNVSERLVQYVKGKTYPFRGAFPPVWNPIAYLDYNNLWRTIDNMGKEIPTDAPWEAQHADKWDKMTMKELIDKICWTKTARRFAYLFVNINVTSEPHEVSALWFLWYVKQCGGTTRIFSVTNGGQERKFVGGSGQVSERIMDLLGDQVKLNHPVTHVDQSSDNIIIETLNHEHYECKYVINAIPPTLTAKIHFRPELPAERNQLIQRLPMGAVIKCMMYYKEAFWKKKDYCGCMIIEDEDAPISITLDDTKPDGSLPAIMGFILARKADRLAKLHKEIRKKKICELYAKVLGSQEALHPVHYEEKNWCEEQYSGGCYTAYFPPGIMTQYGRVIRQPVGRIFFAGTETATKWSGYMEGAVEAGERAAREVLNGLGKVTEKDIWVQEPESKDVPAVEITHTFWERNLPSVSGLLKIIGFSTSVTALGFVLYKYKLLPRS
As to the kind of experiment: MAO-A fluorescence-based kynuramine assay. In kind it is biochemical. An excerpt:
LSD1 has a fair degree of structural similarity and amino acid identity/homology with the flavin-dependent amine oxidases monoamine oxidase A (MAO-A) and B (MAO-B). To determine the level of selectivity of a LSD1 inhibitor versus MAO-A and MAO-B, the inhibitory activity of a compound of interest against MAO-A and MAO-B can be tested using the method described below: Human recombinant monoamine oxidase proteins MAO-A and MAO-B were purchased from Sigma Aldrich.
MAOs catalyze the oxidative deamination of primary, secondary and tertiary amines. In order to monitor MAO enzymatic activities and/or their inhibition rate by inhibitor(s) of interest, a fluorescence-based (inhibitor)-screening assay was set up. 3-(2-Aminophenyl)-3-oxopropanamine (kynuramine dihydrobromide, Sigma Aldrich), a non fluorescent compound was chosen as a substrate. Kynuramine is a non-specific substrate for both MAO-A and MAO-B activities. While undergoing oxidative deamination by MAO activities, kynuramine is converted into 4-hydroxyquinoline (4-HQ), a resulting fluorescent product.
The monoamine oxidase activity was estimated by measuring the conversion of kynuramine into 4-hydroxyquinoline. Assays were conducted in 96-well black plates with clear bottom (Corning) in a final volume of 100 μL. The assay buffer was 100 mM HEPES, pH 7.5. Each experiment was performed in duplicate within the same experiment.
Briefly, a fixed amount of MAO was incubated on ice for 15 minutes in the reaction buffer, in the absence and/or in the presence of at least eight 3-fold serial dilutions each. Clorgyline and Deprenyl (Sigma Aldrich) was used as a control for specific inhibition of MAO-A and MAO-B respectively.
After leaving the enzyme(s) interacting with the inhibitor, KM of kynuramine was added to each reaction for MAO-B and MAO-A assay respectively, and the reaction was left for 1 hour at 37° C. in the dark. The oxidative deamination of the substrate was stopped by adding 50 μL of NaOH 2N. The conversion of kynuramine to 4-hydroxyquinoline, was monitored by fluorescence (excitation at 320 nm, emission at 360 nm) using a microplate reader (Infinite 200, Tecan). Arbitrary units were used to measure levels of fluorescence produced in the absence and/or in the presence of inhibitor.
The maximum of oxidative deamination activity was obtained by measuring the amount of 4-hydroxyquinoline formed from kynuramine deamination in the absence of inhibitor and corrected for background fluorescence in the absence of MAO enzymes. The IC50 values of each inhibitor were calculated with GraphPad Prism Software.

Broadly, the IC50 is the concentration needed to halve the response being measured. Turning to `NC(=O)CN[C@H]1C[C@@H]1c1ccc(OCc2ccccc2)cc1` (racemic) [Compound 3, 2-(((trans)-2-(4-(benzyloxy)phenyl)cyclopropyl)amino)acetamide], the 50% inhibitory concentration (IC50) in test [1] was determined as 0.16 µM; in test [2], 2.3 µM. For the molecule `CN1CCN(C(=O)CN[C@H]2C[C@@H]2c2ccc(OCc3ccccc3)cc2)CC1` (racemic) [Compound 4, 2-(((trans)-2-(4-(benzyloxy)phenyl)cyclopropyl)amino)-1-(4-methylpiperazin-1-yl)ethan-1-one], the IC50 in test [2] amounted to 4.6 µM. For the molecule `N[C@H]1CCN(CCN[C@H]2C[C@@H]2c2ccc(-c3cccc(C(F)(F)F)c3)cc2)C1` (racemic) [Compound 5, (S)-1-(2-(((trans)-2-(3′-(trifluoromethyl)-[1,1′-biphenyl]-4-yl)cyclopropyl)amino)ethyl)pyrrolidin-3-amine], the IC50 came out at 0.06 µM in test [1] and 3.4 µM in test [2].

Take “(+) 5-((((trans)-2-(4-(benzyloxy)phenyl)cyclopropyl)amino)methyl)-1,3,4-oxadiazol-2-amine [Compound 2]”: the IC50 is 2.3 µM in test [1] and 3.8 µM in test [2]. For the molecule “(−) 5-((((trans)-2-(4-(benzyloxy)phenyl)cyclopropyl)amino)methyl)-1,3,4-oxadiazol-2-amine [Compound 1]”, the results for the IC50 in test [1] and in test [2] were 0.09 µM and 5.3 µM, respectively.

(Values after patent publication US20180284095A1, “BIOMARKERS ASSOCIATED WITH LSD1 INHIBITORS AND USES THEREOF” (Oryzon Genomics, S.A., priority 2015, published 2018).)
